US11135237B2, “Lipophosphonoxins of second generation, and their use” (USTAV ORGANICKE CHEMIE A BIOCHEMIE AV CR, V.V.I., priority 2016, dated 2021)
In brackets after ≈: the same amount, converted by molar mass.

Assays:
[1] = tested on: Escherichia coli CCM 3954; experiment: MIC, microdilution method, reference strains; format: cell-based; conditions: CCM3954, read after 24/48 hours of incubation at 37° C.
Experimental: (§1) Antibacterial activity was measured using a standard microdilution method, showing the minimum inhibitory concentration (MIC) of the test sample which results in inhibition of bacterial growth. Disposable microtiter plates were used for the tests. Samples are dissolved in the brain-heart infusion broth (HiMedia Laboraties Pvt. Ltd., Czech Republic), and Mueller Hinton broth (HiMedia Laboraties, see above) at a final concentration ranging from 200 μg/ml to 1.5625 μg/ml. Plates were inoculated with a standard amount of test bacteria-inoculum density in the hole corresponds to 10^5-6 CFU/ml (colony forming units/ml). MIC values are read after 24/48 hours of incubation at 37° C. as the minimum inhibitory concentration of the test substance at which the growth of bacteria is inhibited. Minimal bactericidal concentration (MBC) is defined as the minimum concentration of the sample needed to achieve irreversible inhibition, therefore killing the bacteria after a defined time of incubation. The MBC was determined by inoculation method. 10 μl from the wells in a microplate with a defined concentration of test substance is taken with an applicator, and inoculated onto the surface of blood agar (Trios, Czech Republic) and Sabouraud agar (Trios, CR). The MBC was determined as the lowest concentration that inhibited visible growth of the bacteria used. Standard reference bacterial strains (Escherichia coli CCM 3954, Pseudomonas aeruginosa CCM 3955, Enterococcus faecalis CCM 4224, Staphylococcus aureus CCM 4223) were obtained from the Czech Collection of Microorganisms (CCM) at […] University in Brno. Streptococcus agalactiae, Bacillus subtilis were obtained from the University Hospital Olomouc. The tested microorganisms were maintained in cryobanks (ITEST plus, Czech Republic) at -80° C.

[2] = tested on: Bacillus subtilis; experiment: MIC, microdilution method, reference strains; format: cell-based; conditions: read after 24/48 hours of incubation at 37° C.
Experimental: as §1

[3] = tested on: Streptococcus agalactiae; experiment: MIC, microdilution method, reference strains; format: cell-based; conditions: read after 24/48 hours of incubation at 37° C.
Experimental: as §1

[4] = tested on: Staphylococcus aureus CCM 4223; experiment: MIC, microdilution method, reference strains; format: cell-based; conditions: CCM4223, read after 24/48 hours of incubation at 37° C.
Experimental: as §1

[5] = tested on: Enterococcus faecalis CCM 4224; experiment: MIC, microdilution method, reference strains; format: cell-based; conditions: CCM4224, read after 24/48 hours of incubation at 37° C.
Experimental: as §1

[6] = tested on: Pseudomonas aeruginosa CCM 3955; experiment: MIC, microdilution method, reference strains; format: cell-based; conditions: CCM3955, read after 24/48 hours of incubation at 37° C.
Experimental: as §1

[7] = tested on: E. coli 16702; experiment: MIC, microdilution method, resistant strains; format: cell-based; conditions: Escherichia coli, resistant strain, clinical isolate
Experimental: (§2) Antibacterial activity was measured using a standard microdilution method, showing the minimum inhibitory concentration (MIC) of the test sample which results in inhibition of bacterial growth. Disposable microtiter plates were used for the tests. Samples are dissolved in the brain-heart infusion broth (HiMedia Laboraties Pvt. Ltd., Czech Republic), and Mueller Hinton broth (HiMedia Laboraties, see above) at a final concentration ranging from 200 μg/ml to 1.5625 μg/ml. Plates were inoculated with a standard amount of test bacteria—inoculum density in the hole corresponds to 10^5-6 CFU/ml (colony forming units/ml). MIC values are read after 24/48 hours of incubation at 37° C. as the minimum inhibitory concentration of the test substance at which the growth of bacteria is inhibited. Minimal bactericidal concentration (MBC) is defined as the minimum concentration of the sample needed to achieve irreversible inhibition, therefore killing the bacteria after a defined time of incubation. The MBC was determined by inoculation method. 10 μl from the wells in a microplate with a defined concentration of test substance is taken with an applicator, and inoculated onto the surface of blood agar (Trios, Czech Republic) and Sabouraud agar (Trios, CR). The MBC was determined as the lowest concentration that inhibited visible growth of the bacteria used.

[8] = tested on: P. aeruginosa 16575; experiment: MIC, microdilution method, resistant strains; format: cell-based; conditions: Pseudomonas aeruginosa, resistant strain, clinical isolate
Experimental: as §2

[9] = tested on: S. haemolyticus 16568; experiment: MIC, microdilution method, resistant strains; format: cell-based; conditions: Staphylococcus haemolyticus, fluoroquinolone-resistant strain, clinical isolate
Experimental: as §2

[10] = tested on: S. aureus MRSA 4591; experiment: MIC, microdilution method, resistant strains; format: cell-based; conditions: Staphylococcus aureus, methicillin-resistant strain, clinical isolate
Experimental: as §2

[11] = tested on: S. epidermidis 8700B; experiment: MIC, microdilution method, resistant strains; format: cell-based; conditions: Staphylococcus epidermidis, methicilin-resistant strain, clinical isolate
Experimental: as §2

[12] = tested on: E. faecium VanA 419ana; experiment: MIC, microdilution method, resistant strains; format: cell-based; conditions: Enterococcus faecium, VANA419ANA; vancomycin-resistant strain, clinical isolate
Experimental: as §2

[13] = tested on: Burkholderia multivorans ATCC BAA-247; experiment: MIC, microdilution method; format: cell-based; conditions: ATCCBAA247, read after 24/48 hours of incubation at 37° C.
Experimental: as §2

[14] = tested on: Salmonella Enteritidis S2-25; experiment: MIC, microdilution method; format: cell-based; conditions: Salmonella enterica, read after 24/48 hours of incubation at 37° C.
Experimental: as §2

[15] = tested on: Acinetobacter baumanii A3-08; experiment: MIC, microdilution method; format: cell-based; conditions: Acinetobacter baumannii, A308; read after 24/48 hours of incubation at 37° C.
Experimental: as §2

[16] = tested on: Stenotrophomonas matophilia S2-23; experiment: MIC, microdilution method; format: cell-based; conditions: S223, read after 24/48 hours of incubation at 37° C.
Experimental: as §2

[17] = tested on: mice; experiment: Maximum tolerated dose in mice, oral administration; format: in vivo
Experimental: Maximum tolerated dose in mice was very high, for the compound of Example 3 and oral administration the maximum tolerated dose was 1500 mg/kg of bodyweight.

[18] = tested on: rabbits; experiment: OECD404 test for skin irritation in rabbits; format: in vivo

Structure (SMILES)	MIC [1] [µg/mL]	MIC [2] [µg/mL]	MIC [3] [µg/mL]	MIC [4] [µg/mL]	MIC [5] [µg/mL]	MIC [6] [µg/mL]	MIC [7] [µg/mL]	MIC [8] [µg/mL]	MIC [9] [µg/mL]	MIC [10] [µg/mL]	MIC [11] [µg/mL]	MIC [12] [µg/mL]	MIC [13] [µg/mL]	MIC [14] [µg/mL]	MIC [15] [µg/mL]	MIC [16] [µg/mL]	maximum tolerated dose [17]	skin irritation [18]
CCCCCCCCCCCCCCCCOP(=O)(CCN(CCCN)CCCN)OC[C@H]1O[C@@H](n2ccc(=O)[nH]c2=O)C(O)C1O (some centres unmarked) [Example 1, Hexadecyl-uridine-5′-yl-2-N-bis (3-aminopropyl)-2-aminoethyl phosphonate]	3.12 (≈ 4.53 µM)	0.78 (≈ 1.13 µM)	3.12 (≈ 4.53 µM)	12.5 (≈ 18.1 µM)	50 (≈ 72.5 µM)	6.25 (≈ 9.06 µM)	3.12 (≈ 4.53 µM)	3.12 (≈ 4.53 µM)	3.12 (≈ 4.53 µM)	25 (≈ 36.2 µM)	3.12 (≈ 4.53 µM)	25 (≈ 36.2 µM)						
CCCCCCCCCCCCOP(=O)(CCN(CCCN)CCCN)OC[C@H]1O[C@@H](n2ccc(=O)[nH]c2=O)C(O)C1O (some centres unmarked) [Example 5, Dodecyl-uridine-5′-yl-2-N-bis (3-aminopropyl)-2-aminoethyl phosphonate]	25 (≈ 39.4 µM)	3.12 (≈ 4.93 µM)	12.5 (≈ 19.7 µM)	25 (≈ 39.4 µM)	100 (≈ 158 µM)	3.12 (≈ 4.93 µM)	25 (≈ 39.4 µM)	12.5 (≈ 19.7 µM)	12.5 (≈ 19.7 µM)	50 (≈ 78.9 µM)	12.5 (≈ 19.7 µM)	200 (≈ 316 µM)						
CCCCCCCCCCCCCCCOP(=O)(CCN(CCN)CCN)OC[C@H]1O[C@@H](n2ccc(=O)[nH]c2=O)C(O)C1O (some centres unmarked) [Example 6, Pentadecyl-uridine-5′-yl-2-N-bis(3-aminoethyl)-2-aminoethyl phosphonate]	1.56 (≈ 2.41 µM)	0.78 (≈ 1.2 µM)	3.12 (≈ 4.82 µM)	6.25 (≈ 9.65 µM)	12.5 (≈ 19.3 µM)	1.56 (≈ 2.41 µM)	1.56 (≈ 2.41 µM)	1.56 (≈ 2.41 µM)	1.56 (≈ 2.41 µM)	6.25 (≈ 9.65 µM)	1.56 (≈ 2.41 µM)	100 (≈ 154 µM)						
CCCCCCCCCCCCCCCOP(=O)(CCN(CCCN)CCCN)OC[C@H]1O[C@@H](n2ccc(=O)[nH]c2=O)C(O)C1O (some centres unmarked) [Example 2, Pentadecyl-uridine-5′-yl-2-N-bis(3-aminopropyl)-2-aminoethyl phosphonate]	6.25 (≈ 9.25 µM)	1.56 (≈ 2.31 µM)	3.12 (≈ 4.62 µM)	6.25 (≈ 9.25 µM)	50 (≈ 74 µM)	3.12 (≈ 4.62 µM)	6.25 (≈ 9.25 µM)	3.12 (≈ 4.62 µM)	3.12 (≈ 4.62 µM)	12.5 (≈ 18.5 µM)	6.25 (≈ 9.25 µM)	25 (≈ 37 µM)	12.5 (≈ 18.5 µM)	3.12 (≈ 4.62 µM)	6.25 (≈ 9.25 µM)	3.12 (≈ 4.62 µM)		
CCCCCCCCCCCCCCOP(=O)(CCN(CCCNC(=N)N)CCCNC(=N)N)OC[C@H]1O[C@@H](n2ccc(=O)[nH]c2=O)C(O)C1O (some centres unmarked) [Example 9]	3.12 (≈ 4.19 µM)	1.56 (≈ 2.09 µM)	3.12 (≈ 4.19 µM)	6.25 (≈ 8.38 µM)	12.5 (≈ 16.8 µM)	3.12 (≈ 4.19 µM)	3.12 (≈ 4.19 µM)	6.25 (≈ 8.38 µM)	3.12 (≈ 4.19 µM)	6.25 (≈ 8.38 µM)	3.12 (≈ 4.19 µM)	50 (≈ 67 µM)	100 (≈ 134 µM)	3.12 (≈ 4.19 µM)	12.5 (≈ 16.8 µM)	12.5 (≈ 16.8 µM)		
CCCCCCCCCCCCCOP(=O)(CCN(CCCN)CCCN)OC[C@H]1O[C@@H](n2ccc(=O)[nH]c2=O)C(O)C1O (some centres unmarked) [Example 4, Tridecyl-uridine-5′-yl-2-N-bis (3-aminopropyl)-2-aminoethyl phosphonate]	25 (≈ 38.6 µM)	3.12 (≈ 4.82 µM)	6.25 (≈ 9.65 µM)	12.5 (≈ 19.3 µM)	50 (≈ 77.2 µM)	3.12 (≈ 4.82 µM)	50 (≈ 77.2 µM)	25 (≈ 38.6 µM)	6.25 (≈ 9.65 µM)	25 (≈ 38.6 µM)	12.5 (≈ 19.3 µM)	100 (≈ 154 µM)	50 (≈ 77.2 µM)	50 (≈ 77.2 µM)	50 (≈ 77.2 µM)	50 (≈ 77.2 µM)		
CCCCCCCCCCCCCCOP(=O)(CCN(CCCN)CCCN)OC[C@H]1O[C@@H](n2ccc(=O)[nH]c2=O)C(O)C1O (some centres unmarked) [Example 3, Tetradecyl-uridine-5′-yl-2-N-bis (3-aminopropyl)-2-aminoethyl phosphonate]	6.25 (≈ 9.44 µM)	0.78 (≈ 1.18 µM)	3.12 (≈ 4.72 µM)	6.25 (≈ 9.44 µM)	25 (≈ 37.8 µM)	0.78 (≈ 1.18 µM)	3.12 (≈ 4.72 µM)	1.56 (≈ 2.36 µM)	1.56 (≈ 2.36 µM)	6.25 (≈ 9.44 µM)	1.56 (≈ 2.36 µM)	100 (≈ 151 µM)	200 (≈ 302 µM)	6.25 (≈ 9.44 µM)	25 (≈ 37.8 µM)	50 (≈ 75.5 µM)	1500 mg/kg of bodyweight	not an irritant
CCCCCCCCCCCCCCOP(=O)(CCN(CCN)CCN)OC[C@H]1O[C@@H](n2ccc(=O)[nH]c2=O)C(O)C1O (some centres unmarked) [Example 7, Tetradecyl-uridine-5′-yl-2-N-bis(3-aminoethyl)-2-aminoethyl phosphonate]	12.5 (≈ 19.7 µM)	6.25 (≈ 9.86 µM)	6.25 (≈ 9.86 µM)	25 (≈ 39.4 µM)	100 (≈ 158 µM)	3.12 (≈ 4.93 µM)	6.25 (≈ 9.86 µM)	6.25 (≈ 9.86 µM)	3.12 (≈ 4.93 µM)	12.5 (≈ 19.7 µM)	3.12 (≈ 4.93 µM)	100 (≈ 158 µM)	12.5 (≈ 19.7 µM)	12.5 (≈ 19.7 µM)	25 (≈ 39.4 µM)	6.25 (≈ 9.86 µM)		
CCCCCCCCCCCCCCCOP(=O)(CCN(CCCNC(=N)N)CCCNC(=N)N)OC[C@H]1O[C@@H](n2ccc(=O)[nH]c2=O)C(O)C1O (some centres unmarked) [Example 8]	0.78 (≈ 1.03 µM)	0.39 (≈ 0.513 µM)	1.56 (≈ 2.05 µM)	3.12 (≈ 4.11 µM)	25 (≈ 32.9 µM)	0.78 (≈ 1.03 µM)	0.78 (≈ 1.03 µM)	1.56 (≈ 2.05 µM)	1.56 (≈ 2.05 µM)	3.12 (≈ 4.11 µM)	1.56 (≈ 2.05 µM)	50 (≈ 65.8 µM)	100 (≈ 132 µM)	1.56 (≈ 2.05 µM)	6.25 (≈ 8.22 µM)	3.12 (≈ 4.11 µM)		
CCCCCCCCCCCCCCOP(=O)(CCN1CCC(N)C1)OC[C@H]1O[C@@H](n2ccc(=O)[nH]c2=O)C(O)C1O (some centres unmarked) [Example 10, Tetradecyl-uridine-5′-yl-(3-aminopyrrolidin-1-N-yl) ethyl phosphonate]	3.12 (≈ 5.07 µM)	1.56 (≈ 2.53 µM)	3.12 (≈ 5.07 µM)	12.5 (≈ 20.3 µM)	6.25 (≈ 10.1 µM)	3.12 (≈ 5.07 µM)	3.12 (≈ 5.07 µM)	3.12 (≈ 5.07 µM)	6.25 (≈ 10.1 µM)	25 (≈ 40.5 µM)	3.12 (≈ 5.07 µM)	50 (≈ 81.1 µM)						
